Among the data in patent publication US10981917B2, “Heterocyclic compound, its preparation method, and pharmaceutical composition comprising the same” (Daewoong Pharmaceutical Co., Ltd., priority 2017, dated 2021) are IC50 values, retold here.

Structures are written as SMILES. Where only a bound is given, the exact number is not on record here.

Chain of PRS (prolyl-tRNA synthetase) protein, PRS portion of EPRS (P07814 1007-1512): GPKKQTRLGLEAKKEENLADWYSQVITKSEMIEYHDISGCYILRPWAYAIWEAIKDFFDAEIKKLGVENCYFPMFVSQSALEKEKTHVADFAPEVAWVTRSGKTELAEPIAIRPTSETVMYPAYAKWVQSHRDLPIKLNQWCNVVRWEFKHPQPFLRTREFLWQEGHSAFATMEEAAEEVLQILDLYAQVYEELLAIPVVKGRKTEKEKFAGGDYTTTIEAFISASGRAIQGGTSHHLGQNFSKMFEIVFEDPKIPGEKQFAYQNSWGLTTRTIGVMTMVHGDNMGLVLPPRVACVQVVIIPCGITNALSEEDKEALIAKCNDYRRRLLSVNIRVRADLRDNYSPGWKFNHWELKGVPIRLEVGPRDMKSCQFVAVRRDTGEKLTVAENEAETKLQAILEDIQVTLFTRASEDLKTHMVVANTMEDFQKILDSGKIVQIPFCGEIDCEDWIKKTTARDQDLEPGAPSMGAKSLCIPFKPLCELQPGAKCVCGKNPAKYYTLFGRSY

In this assay the target is PRS (prolyl-tRNA synthetase) protein, PRS portion of EPRS (Homo sapiens (Human), UniProt P07814). The assay is described as follows: PRS enzyme activity inhibition experiment ([3H]proline, liquid scintillation). The note with it: purified PRS protein, 37° C. for 5 to 10 minutes. It is filed as biochemical. In short, it runs like this:
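Values are % inhibition or IC50 ranges (A ≤100 nM, B 100–500 nM, C ≥500 nM) from [3H]proline incorporation measured by liquid scintillation. PRS portion of human EPRS, reacted 5–10 min at 37 °C in pH 7.4 phosphate buffer containing 5 mM ATP and tRNA, compound at 1 μM.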
In turn, `O[C@H]1CCCN[C@@H]1CCCn1cnc2cc(Cl)c(Cl)cc21` [Example 53, (2R,3S)-2-(3-(5,6-dichloro-1H-benzo[d]imidazol-1-yl)propyl)piperidin-3-ol] yielded an IC50 of 100 to 500 nM. `O[C@H]1CCCN[C@@H]1CCCn1cnc2cc(Br)c(Br)cc21` [Example 54, (2R,3S)-2-(3-(5,6-dibromo-1H-benzo[d]imidazol-1-yl)propyl)piperidin-3-ol] registered an IC50 not below 500 nM. In the case of `Cc1cc2ncn(CCC[C@H]3NCCC[C@@H]3O)c2cc1C` [Example 55, (2R,3S)-2-(3-(5,6-dimethyl-1H-benzo[d]imidazol-1-yl)propyl)piperidin-3-ol] it was not below 500 nM. `O[C@H]1CCCN[C@@H]1CCCn1cnc2ccc(Cl)c(Cl)c21` [Example 56, (2R,3S)-2-(3-(6,7-dichloro-1H-benzo[d]imidazol-1-yl)propyl)piperidin-3-ol] returned an IC50 of 100 to 500 nM. In the case of `O[C@H]1CCCN[C@@H]1CCCn1cnc2c(F)cc(F)cc21` [Example 57, (2R,3S)-2-(3-(4,6-difluoro-1H-benzo[d]imidazol-1-yl)propyl)piperidin-3-ol] it was not below 500 nM. In turn, `O[C@H]1CCCN[C@@H]1CCCn1cnc2cc(F)cc(F)c21` [Example 58, (2R,3S)-2-(3-(5,7-difluoro-1H-benzo[d]imidazol-1-yl)propyl)piperidin-3-ol] came in with an IC50 not above 100 nM. In the case of `COc1ccc2c(ncn2CCC[C@H]2NCCC[C@@H]2O)c1Cl` [Example 59, (2R,3S)-2-(3-(4-chloro-5-methoxy-1H-benzo[d]imidazol-1-yl)propyl)piperidin-3-ol] it was 100 to 500 nM; in that of `COc1ccc2ncn(CCC[C@H]3NCCC[C@@H]3O)c2c1Cl` [Example 60, (2R,3S)-2-(3-(7-chloro-6-methoxy-1H-benzo[d]imidazol-1-yl)propyl)piperidin-3-ol], 100 to 500 nM. In the case of `Cc1cc(Cl)cc2c1ncn2CCC[C@H]1NCCC[C@@H]1O` [Example 61, (2R,3S)-2-(3-(6-chloro-4-methyl-1H-benzo[d]imidazol-1-yl)propyl)piperidin-3-ol], the IC50 was not above 100 nM. In the case of `O[C@H]1CCCN[C@@H]1CCCn1cnc2c(Cl)c(F)ccc21` [Example 62, (2R,3S)-2-(3-(4-chloro-5-fluoro-1H-benzo[d]imidazol-1-yl)propyl)piperidin-3-ol] it was 100 to 500 nM. `Cc1cc(Br)cc2c1ncn2CCC[C@H]1NCCC[C@@H]1O` [Example 63, (2R,3S)-2-(3-(6-bromo-4-methyl-1H-benzo[d]imidazol-1-yl)propyl)piperidin-3-ol] had an IC50 not above 100 nM. `Cc1c(F)ccc2c1ncn2CCC[C@H]1NCCC[C@@H]1O` [Example 64, (2R,3S)-2-(3-(5-fluoro-4-methyl-1H-benzo[d]imidazol-1-yl)propyl)piperidin-3-ol] came in with an IC50 not above 100 nM. For `Cc1c(F)ccc2ncn(CCC[C@H]3NCCC[C@@H]3O)c12` [Example 65, (2R,3S)-2-(3-(6-fluoro-7-methyl-1H-benzo[d]imidazol-1-yl)propyl)piperidin-3-ol], the IC50 was in the range of 100 to 500 nM. In the case of `O[C@H]1CCCN[C@@H]1CCCn1cnc2c(Cl)c(C(F)(F)F)ccc21` [Example 66, (2R,3S)-2-(3-(4-chloro-5-(trifluoromethyl)-1H-benzo[d]imidazol-1-yl)propyl)piperidin-3-ol] it was not below 500 nM.

Compound `O[C@H]1CCCN[C@@H]1CCCn1cnc2ccc(C(F)(F)F)c(Cl)c21` [Example 67, (2R,3S)-2-(3-(7-chloro-6-(trifluoromethyl)-1H-benzo[d]imidazol-1-yl)propyl)piperidin-3-ol] returned an IC50 not above 100 nM. Under `COC(=O)c1cc(Br)c2c(c1)ncn2CCC[C@H]1NCCC[C@@H]1O` [Example 68, methyl 7-bromo-1-(3-((2R,3S)-3-hydroxypiperidin-2-yl)propyl)-1H-benzo[d]imidazole-5-carboxylate] stands not below 500 nM.

Turning to `O[C@H]1CCCN[C@@H]1CCCn1cnc2cc(Cl)cc(Br)c21` [Example 69, (2R,3S)-2-(3-(7-bromo-5-chloro-1H-benzo[d]imidazol-1-yl)propyl)piperidin-3-ol], the IC50 was not above 100 nM. Under `O[C@H]1CCCN[C@@H]1CCCn1cnc2cc(Br)cc(Cl)c21` [Example 70, (2R,3S)-2-(3-(5-bromo-7-chloro-1H-benzo[d]imidazol-1-yl)propyl)piperidin-3-ol] stands not above 100 nM; under `O[C@H]1CCCN[C@@H]1CCCn1cnc2cc(C(F)(F)F)cc(Br)c21` [Example 71, (2R,3S)-2-(3-(7-bromo-5-(trifluoromethyl)-1H-benzo[d]imidazol-1-yl)propyl)piperidin-3-ol], 100 to 500 nM; under `O[C@H]1CCCN[C@@H]1CCCn1cnc2c(F)cc(Br)cc21` [Example 72, (2R,3S)-2-(3-(6-bromo-4-fluoro-1H-benzo[d]imidazol-1-yl)propyl)piperidin-3-ol], 100 to 500 nM.

Take `O[C@H]1CCCN[C@@H]1CCCn1cnc2cc(Br)cc(F)c21` [Example 73, (2R,3S)-2-(3-(5-bromo-7-fluoro-1H-benzo[d]imidazol-1-yl)propyl)piperidin-3-ol]: the IC50 is 100 to 500 nM. With `O[C@H]1CCCN[C@@H]1CCCn1cnc2c(F)ccc(Cl)c21` [Example 74, (2R,3S)-2-(3-(7-chloro-4-fluoro-1H-benzo[d]imidazol-1-yl)propyl)piperidin-3-ol], the IC50 was 100 to 500 nM. For `O=[N+]([O-])c1c(Br)ccc2c1ncn2CCC[C@H]1NCCC[C@@H]1O` [Example 75, (2R,3S)-2-(3-(5-bromo-4-nitro-1H-benzo[d]imidazol-1-yl)propyl)piperidin-3-ol], the IC50 was not below 500 nM. In the case of `O=[N+]([O-])c1c(Br)ccc2ncn(CCC[C@H]3NCCC[C@@H]3O)c12` [Example 76, (2R,3S)-2-(3-(6-bromo-7-nitro-1H-benzo[d]imidazol-1-yl)propyl)piperidin-3-ol] it was not below 500 nM.

`O=[N+]([O-])c1ccc2c(ncn2CCC[C@H]2NCCC[C@@H]2O)c1Cl` [Example 77, (2R,3S)-2-(3-(4-chloro-5-nitro-1H-benzo[d]imidazol-1-yl)propyl)piperidin-3-ol] gave an IC50 of 100 to 500 nM. `O[C@H]1CCCN[C@@H]1CCCn1cnc2cc(C(F)(F)F)cc(Cl)c21` [Example 78, (2R,3S)-2-(3-(7-chloro-5-(trifluoromethyl)-1H-benzo[d]imidazol-1-yl)propyl)piperidin-3-ol] had an IC50 of 100 to 500 nM. `O[C@H]1CCCN[C@@H]1CCCn1cnc2cc(Cl)cc(F)c21` [Example 79, (2R,3S)-2-(3-(5-chloro-7-fluoro-1H-benzo[d]imidazol-1-yl)propyl)piperidin-3-ol] came in with a half-inhibitory concentration (IC50) not above 100 nM. Under `O[C@H]1CCCN[C@@H]1CCCn1cnc2cc(Cl)cc(Cl)c21` [Example 80, (2R,3S)-2-(3-(5,7-dichloro-1H-benzo[d]imidazol-1-yl)propyl)piperidin-3-ol] stands not above 100 nM; under `O[C@H]1CCCN[C@@H]1CCCn1cnc2cc(Cl)cc(-c3cn[nH]c3)c21` [Example 81, (2R,3S)-2-(3-(5-chloro-7-(1H-pyrazol-4-yl)-1H-benzo[d]imidazol-1-yl)propyl)piperidin-3-ol], not below 500 nM; under `O[C@H]1CCCN[C@@H]1CCCn1cnc2cc(C(F)(F)F)cc(-c3cn[nH]c3)c21` [Example 82, (2R,3S)-2-(3-(7-(1H-pyrazol-4-yl)-5-(trifluoromethyl)-1H-benzo[d]imidazol-1-yl)propyl)piperidin-3-ol], not below 500 nM.
